One series has as its system Apis mellifera. Particulars: acute; duration: 48 hours; dermal; mortality.
For the next series, the system named is Bibionidae. The following applies: chronic/long-term; duration: 28 days.
The test system of a further series is Daphnia magna. Particulars: chronic/long-term; duration: 21 days; reproduction.
In a further series the test system is Anas platyrhynchos. The following applies: reproductive.
A further series relates to Colinus virginianus. The following applies: acute, mortality.
The test system of another series is Aphidius rhopalosiphi. In words: LR50; higher = less toxic. The following applies: acute; duration: 48 hours; mortality.

≈ marks a conversion by molar mass, not a printed value. Some results are limits rather than exact numbers.

From EPA's ToxValDB 9.5 (doi:10.2903/j.efsa.2007.105r) come the findings set out here.

One may read the NOAEL as the highest dose or exposure tested at which no adverse effect was seen.

`Cc1cc(C)c(C2=C(OC(=O)CC(C)(C)C)C3(CCCC3)OC2=O)c(C)c1` [Spiromesifen]: the LD50 with Apis mellifera was > 200 µg/piece; in the series on Colinus virginianus it was > 1160 mg/kg; in the series on Colinus virginianus (oral, diet), > 2000 mg/kg; with Rattus norvegicus (acute, oral, mortality), > 2500 mg/kg. For the same compound, the NOEC stood at 0.032 mg/L in the series on Bibionidae; 4.32 mg/kg in the series with Tagia sp. (chronic/long-term, duration: 56 days, reproduction); 0.00025 mg/L in the series on Daphnia magna; 0.00473 mg/L with Oncorhynchus mykiss (chronic/long-term, duration: 97 days, time to swim up); 229 mg/kg with Anas platyrhynchos; 30 mg/kg-day in the series on Rattus norvegicus (chronic). Further, the LC50 in the series on Tagia sp. (acute, duration: 14 days, mortality) was > 1000 mg/kg; in the series on Oncorhynchus mykiss (acute, duration: 96 hours, mortality), 0.016 mg/L (≈ 0.0432 µM); in the series with Anas platyrhynchos (mortality), > 5000 mg/kg; in the series with Colinus virginianus it was > 5000 mg/kg. Besides, the NOAEL with Mus musculus (chronic, duration: 18 months) was 3 mg/kg-day; in the series with Mus musculus (subchronic, duration: 90 days, oral, clinical chemistry), 3 mg/kg-day; in the series on Rattus norvegicus (acute), 200 mg/kg-day. For the same compound, the LR50 in the series on Aphidius rhopalosiphi worked out at 40.6 mL/ha.
